Paper PMC4760274, “Elongation factor 2 kinase promotes cell survival by inhibiting protein synthesis without inducing autophagy” (Cellular Signalling, 2016)
Peptide text beside a SMILES is read from it. * marks the point of attachment. Cbz = O=C(OCc1ccccc1)*

Legend:
[1] = tested on: P-eEF2 in HCT116 cells; experiment: eEF2 phosphorylation in HCT116 cells (western blot); type: cell-based, human; settings: 24 h, CHX 5 μg/mL or Harringtonine 2 μg/mL, Fig. 1C
Protocol: (§1) After treatment, cells were lysed in ice-cold lysis buffer containing 1% (v/v) Triton X-100 (215680010, Acros Organics), 50 mM Tris (T6066-1KG, Sigma-Aldrich)–HCl (258148-2.5 L, Sigma-Aldrich) pH 7.4, 50 mM NaCl (BP358-212, Fisher Scientific), 0.2 mM EDTA (BP120-500, Fisher Scientific), 0.2 mM EGTA (E1102, Melford), 50 mM β-glycerophosphate (G9422, Sigma-Aldrich), 1 mM Na3VO4 (S6508, Sigma-Aldrich), 15 mM β-mercaptoethanol (125472500, Acros Organics) and 1 × protease inhibitor cocktail (5056489001, Roche). Lysates were spun at 16,000 × g for 10 min at 4 °C; the supernatants were kept and total protein concentration was quantified by Bradford assay following the manufacturer's instructions.
(§2) These procedures were performed as described previously.
(§3) Fig. 1 eEF2K helps cells withstand glucose starvation. […] Cells were then lysed and samples containing equal amounts of protein were analysed by western blot using the indicated antibodies. Values given below each lane show quantitation of the signal for P-eEF2, corrected for the eEF2 signal from multiple experiments as in (A) expressed as P-eEF2 normalized to eEF2, mean ± SEM (control cells without treatment = 1; n = 3). […] Cells were lysed and caspase 3/7 activity was determined. […] Cell death was measured using CellTox Green® assay. […]

[2] = tested on: HCT116 cells; experiment: cell death markers in HCT116 cells (PARP cleavage, caspase 3/7 activity); type: cell-based, human; settings: CHX 5 μg/mL or Harringtonine 2 μg/mL, Fig. 1B, C
Protocol: (§4) Caspase 3/7 assays (G8090, Promega) were performed according to the manufacturer's instructions. Briefly, 10,000 cells/well were plated overnight in a 96-well plate. Cells were treated as described in the figure legends for the indicated time period. To measure caspase 3/7 activity, 50 μL of caspase Glo 3/7 reagent was added to each well for 2 h with constant shaking at room temperature. Luminescence was measured using a BMG Labtech FLUOstar Optimi plate reader. Cytotoxicity was evaluated by CellTox Green® cytotoxicity assay (Promega). Briefly, 10,000 cells/well were plated overnight in a 96-well plate. Cells were treated as described in the figure legends for the indicated time period. Fluorescence was measured at 485–500 nmEx/520–530 nmEm using a BMG Labtech FLUOstar Optimi plate reader.
as §3

[3] = tested on: mTORC1 signalling in HCT116 cells; experiment: mTORC1 signalling in HCT116 cells (western blot); type: cell-based, human; settings: 24 h, Harringtonine 2 μg/mL, Fig. 1C
Protocol: as §1, §2, §3

[4] = tested on: P-eEF2 in A549 cells; experiment: eEF2 phosphorylation in A549 cells (western blot); type: cell-based, human; settings: for phosphorylation of eEF2: 16 h, 2DG 10 mM, rapamycin 100 nM, AZD8055 1 μM, MG132 10 μM, Fig. 2A
Protocol: as §1, §2
Cells were then treated with 10 mM 2-deoxyglucose (2DG), rapamycin (100 nM), AZD8055 (1 μM) or MG132 (10 μM) for 16 h. Cells were then lysed and samples containing equal amounts of protein were analysed by western blot using the indicated antibodies. Values given below each lane show quantitation of the signal for LC3II, corrected for the actin signal from multiple experiments as in (A) expressed as LC3II normalized to actin, mean ± SEM (control cells without treatment = 1; n = 3). (B) A549 cells were cultured as in (A) to induce eEF2K knockdown. A549 cells were transiently transfected with the GST-BHMT construct and maintained in full media in the presence or absence of AZD8055 (1 μM) for 16 h, in the presence of leupeptin and E64d. GST-BHMT was precipitated with glutathione agarose from the whole cell extracts (bottom panel). Values given below show the quantitation of data from multiple experiments as in (B) expressed as the level of BHMT fragment normalized to the control without IPTG, mean ± SEM (control cells without treatment = 1; n = 3). Values given below each lane show quantitation of the signal for P-eEF2, corrected for the eEF2 signal from multiple experiments as in (B) expressed as P-eEF2 normalized to eEF2, mean ± SEM (control cells without treatment = 1; n = 3). (C) Cells were treated as described in Supplemental Fig. S3, visualized by confocal microscopy and the rate of autophagosome–lysosome fusion was measured according to green/red fluorescence ratio which reflect the percentage of unfused LC3. Scale bar = 20 μm. (D) Data quantification of C, data are presented as means ± SEM. (n = 5) ***P < 0.001, obtained by two-way ANOVA (Dunnett's test). (E) Untransfected A549 cells were treated with AZD8055 and BafA1 as described in A, cell lysates were collected at T0, 1 and 3 h for immunoblotting analysis. Values given below each lane show quantitation of the signal for LC3II, corrected for the LC3I signal from multiple experiments as in (E) expressed as LC3II normalized to LC3I, mean ± SEM (control cells without treatment = 1; n = 3).

[5] = tested on: A549 cells; experiment: cell death of A549 cells (CellTox Green assay); type: cell-based, human; settings: CHX 5 μg/mL
Protocol: as §4, §3

[6] = tested on: eEF2K levels in A549 cells; experiment: eEF2K protein levels in A549 cells (western blot); type: cell-based, human; settings: CHX 5 μg/mL, 24 h, Fig. 1E
Protocol: as §1, §2, §3

[7] = tested on: P-eEF2 in WT MEFs; experiment: eEF2 phosphorylation in wild-type MEFs (western blot); type: cell-based, mouse; settings: MK2206 5 μM or 2DG 10 mM, 24 h, Fig. 3A
Protocol: as §1, with “instructions. […]” for “instructions.”
Fig. 3 Role of eEF2K in autophagy in mouse embryonic fibroblasts (MEFs). […] Cells were then lysed and samples containing equal amounts of protein were analysed by western blot using the indicated antibodies. (B) Quantitation of data from multiple experiments as in (A) expressed as LC3II normalized to actin, mean ± SEM (control cells without treatment = 1; n = 3). […] Cells were then lysed and samples containing equal amounts of protein were analysed by western blot using the indicated antibodies. (D) Quantitation of data from multiple experiments as in (C) expressed as LC3II normalized to actin, mean ± SEM (control cells without treatment = 1; n = 3).

[8] = tested on: LC3II in MEFs; experiment: LC3 modification in MEFs (western blot); type: cell-based, mouse; settings: 24 h; for ratio of the two forms of LC3: WT MEFs, MK2206 5 μM or 2DG 10 mM, Fig. 3A
Protocol: as §1, §2
Fig. 3 Role of eEF2K in autophagy in mouse embryonic fibroblasts (MEFs). Wildtype (WT) and eEF2K^−/− (KO) MEFs were treated, where indicated, with MK2206 (MK) (5 μM) or 10 mM 2-deoxyglucose (2DG) or in medium lacking glucose (− Glc) for 24 h. Cells were then lysed and samples containing equal amounts of protein were analysed by western blot using the indicated antibodies. (B) Quantitation of data from multiple experiments as in (A) expressed as LC3II normalized to actin, mean ± SEM (control cells without treatment = 1; n = 3). (C) Wild-type (WT) and eEF2K^−/− (KO) MEFs were treated, where indicated, with rapamycin (50 nM) or AZD8055 (0.5 μM) and/or chloroquine (10 μM) for 24 h. Cells were then lysed and samples containing equal amounts of protein were analysed by western blot using the indicated antibodies. (D) Quantitation of data from multiple experiments as in (C) expressed as LC3II normalized to actin, mean ± SEM (control cells without treatment = 1; n = 3).

[9] = tested on: LC3II in A549 cells; experiment: LC3 modification in A549 cells (western blot); type: cell-based, human; settings: A549 with or without eEF2K knockdown; chloroquine 10 μM; 16 h; Fig. S1
Protocol: as §1, §2
Cells were then treated with 10 mM 2-deoxyglucose (2DG), rapamycin (100 nM), AZD8055 (1 μM) or MG132 (10 μM) for 16 h. Cells were then lysed and samples containing equal amounts of protein were analysed by western blot using the indicated antibodies. Values given below each lane show quantitation of the signal for LC3II, corrected for the actin signal from multiple experiments as in (A) expressed as LC3II normalized to actin, mean ± SEM (control cells without treatment = 1; n = 3). (B) A549 cells were cultured as in (A) to induce eEF2K knockdown. […] (D) Data quantification of C, data are presented as means ± SEM. […]

[10] = tested on: GST-BHMT cleavage (autophagic flux) in A549 cells; experiment: GST-BHMT cleavage assay in A549 cells; type: cell-based, human; settings: chloroquine, data not shown

Compound	effect on eEF2 phosphorylation (p-eEF2) [1]	cell survival in cells starved of glucose and treated with eEF2K inhibitor JAN-849 [2]	phosphorylation of eEF2 [4]	level of phosphorylation of eEF2 [7]	ratio of the two forms of LC3 [8]	also measured
COC(=O)C[C@](O)(CCC(C)(C)O)C(=O)O[C@@H]1C(OC)=C[C@]23CCCN2CCc2cc4c(cc2[C@H]13)OCO4 [Harringtonine]	no effect	restored cell survival	–	–	–	effect on mTORC1 signalling [3]: very little
CC(C)C[C@@H](C=O)NC(=O)[C@H](CC(C)C)NC(=O)[C@H](CC(C)C)NC(=O)OCc1ccccc1 [MG132] (Cbz-Leu-Leu-Leu-aldehyde)	–	–	induced the phosphorylation of eEF2	–	–	–
C[C@@H]1C[C@@H]([C@H](O)CC2CC(=O)NC(=O)C2)C(=O)[C@@H](C)C1 [CHX, cycloheximide]	modest decrease	restored cell survival	–	–	–	effect on cell survival under control conditions ([5]; A549): adverse effect; death induced by glucose starvation ([5]; A549 with eEF2K knockdown, 48 h, Fig. 1D): partially rescued; eEF2 phosphorylation ([4]; CHX 5 μg/mL, 24 h, Fig. 1E): decrease in eEF2 phosphorylation; levels of eEF2K [6]: decreased the levels of eEF2K
O=CC[C@@H](O)[C@H](O)[C@H](O)CO [2-DG, 2-deoxyglucose]	–	–	induced the phosphorylation of eEF2	increased the level of phosphorylation of eEF2	shift in the ratio of the two forms of LC3 from the upper (LC3I) to the lower band	–
CCN(CC)CCCC(C)Nc1ccnc2cc(Cl)ccc12 (stereo not drawn) [chloroquine]	–	–	–	–	–	modified LC3 [9]: increased modified LC3; cleavage of GST-BHMT [10]: completely blocked; levels of modified LC3-II ([8]; MEFs treated with rapamycin (50 nM) or AZD8055 (0.5 μM), chloroquine 10 μM, Fig. 3C): increased the levels of modified LC3-II
NC1(c2ccc(-c3nc4ccn5c(=O)[nH]nc5c4cc3-c3ccccc3)cc2)CCC1 [MK2206]	–	–	–	increased the level of phosphorylation of eEF2	shift in the ratio of the two forms of LC3 from the upper (LC3I) to the lower band	–
